# US20260374773A1, “MULTI-CYCLIC IRAK AND FLT3 INHIBITING COMPOUNDS AND USES THEREOF” (CHILDREN'S HOSPITAL MEDICAL CENTER, priority 2022, published 2026)
# Biological target: T1, FLT3 D835H (Homo sapiens, UniProt P36888, D835H)
# T1 sequence (P36888 27-993 D835H): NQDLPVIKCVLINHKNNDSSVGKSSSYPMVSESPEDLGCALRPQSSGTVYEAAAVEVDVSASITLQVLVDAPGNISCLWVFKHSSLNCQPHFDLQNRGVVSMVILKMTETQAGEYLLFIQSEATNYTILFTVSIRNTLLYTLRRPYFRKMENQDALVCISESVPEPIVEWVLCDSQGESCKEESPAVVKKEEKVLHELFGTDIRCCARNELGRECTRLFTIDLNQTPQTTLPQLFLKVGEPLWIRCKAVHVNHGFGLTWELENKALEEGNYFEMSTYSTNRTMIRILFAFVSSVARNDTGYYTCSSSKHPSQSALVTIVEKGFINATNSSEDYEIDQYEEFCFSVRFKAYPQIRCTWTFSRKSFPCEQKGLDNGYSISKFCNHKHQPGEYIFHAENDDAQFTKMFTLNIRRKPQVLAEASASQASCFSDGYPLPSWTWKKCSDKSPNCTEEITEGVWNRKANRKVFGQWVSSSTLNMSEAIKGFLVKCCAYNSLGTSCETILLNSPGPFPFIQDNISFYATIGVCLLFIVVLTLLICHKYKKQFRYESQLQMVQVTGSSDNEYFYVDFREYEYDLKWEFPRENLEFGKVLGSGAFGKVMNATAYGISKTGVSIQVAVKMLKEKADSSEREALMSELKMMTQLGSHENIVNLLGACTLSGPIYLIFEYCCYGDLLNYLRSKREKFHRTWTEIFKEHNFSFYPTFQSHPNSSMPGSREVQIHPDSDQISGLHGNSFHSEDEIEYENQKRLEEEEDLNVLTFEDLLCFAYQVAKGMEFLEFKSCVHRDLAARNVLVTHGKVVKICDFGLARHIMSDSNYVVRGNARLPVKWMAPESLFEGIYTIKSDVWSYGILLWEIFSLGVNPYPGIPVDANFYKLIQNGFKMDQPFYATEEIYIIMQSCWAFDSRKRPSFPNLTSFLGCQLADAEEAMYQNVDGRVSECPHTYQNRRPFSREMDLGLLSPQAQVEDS
# Test: DiscoverX KINOMEscan active site-directed competition binding, FLT3 D835H
# Details: Table 12; no ATP
# Source text: (§1) Kinase binding data were obtained for various exemplary compounds prepared according to Examples 1-8 using the DiscoverX KINOMEscan® active site-directed competition binding site-directed assay protocol described below. […] As a result, the data report thermodynamic interaction affinities (Kd values), rather than IC50 values that are dependent on ATP concentrations. The assay uses a DNA-tagged version of the protein kinase, and an immobilized ligand bound to a solid support. Compounds that directly or indirectly prevent kinase binding to the immobilized ligand reduce the amount of kinase captured on the solid support, which is detected using an ultra-sensitive qPCR method. Affinity constants reported from the assay have been reported to be independent of the immobilized ligand used that is coupled to the solid support (See supplemental information in Fabian, M. A. et. al., (2005) Nat. Biotechnol. 23, 329-336; Wodicka, L. M. et. al., (2010) Chem. Biol. 17, 1241-1249.)
# Kinase-tagged T7 phage strains were prepared in an E. coli host derived from the BL21 strain. E. coli were grown to log-phase and infected with T7 phage and incubated with shaking at 32 °C until lysis. The lysates were centrifuged and filtered to remove cell debris. The remaining kinases were produced in HEK-293 cells and subsequently tagged with DNA for qPCR detection. Streptavidin-coated magnetic beads were treated with biotinylated small molecule ligands for 30 minutes at room temperature to generate affinity resins for kinase assays. The liganded beads were blocked with excess biotin and washed with blocking buffer (SeaBlock (Pierce), 1% BSA, 0.05% Tween 20, 1 mM DTT) to remove unbound ligand and to reduce non-specific binding. […] Test compounds were prepared as 111x stocks in 100% DMSO. Kds were determined using an 11-point 3-fold compound dilution series with three DMSO control points. All compounds for Kd measurements are distributed by acoustic transfer (non-contact dispensing) in 100% DMSO. The compounds were then diluted directly into the assays such that the final concentration of DMSO was 0.9%. All reactions were performed in polypropylene 384-well plates. Each was a final volume of 0.02 mL. The assay plates were incubated at room temperature with shaking for 1 hour and the affinity beads were washed with wash buffer (1×PBS, 0.05% Tween 20). The beads were then re-suspended in elution buffer (1×PBS, 0.05% Tween 20, 0.5 μM nonbiotinylated affinity ligand) and incubated at room temperature with shaking for 30 minutes. The kinase concentration in the eluates was measured by qPCR. Binding constants (Kds) were calculated with a standard dose-response curve using the Hill equation. The Hill Slope was set to −1. Curves were fitted using a non-linear least square fit with the Levenberg-Marquardt algorithm.
# as §1, with “9-12” for “1-8”
# Kinase-tagged T7 phage strains were prepared in an E. coli host derived from the BL21 strain. […]
row,Kd [nM],Compound
1,< 0.17,"COc1cn2ncc(-c3nc(N[C@H]4CNCC[C@@H]4F)c(F)cc3F)c2nc1C(C)(C)O [Compound 13, 2-(3-(3,5-difluoro-6-(((3S,4S)-4-fluoropiperidin-3-yl)amino)pyridin-2-yl)-6-methoxypyrazolo[1,5-a]pyrimidin-5-yl)propan-2-ol]"
2,0.2,"COc1cn2ncc(-c3nc(N[C@H]4CNCC[C@@H]4F)c(C#N)cc3F)c2nc1C(C)(C)O [Compound 10, 5-fluoro-2-(((3S,4S)-4-fluoropiperidin-3-yl)amino)-6-(5-(2-hydroxypropan-2-yl)-6-methoxypyrazolo[1,5-a]pyrimidin-3-yl)nicotinonitrile]"
3,0.18,"COc1cn2ncc(-c3nc(N[C@H]4CNCC[C@@H]4F)c(C#N)cc3F)c2nc1C1CC1 [Compound 7, 6-(5-cyclopropyl-6-methoxypyrazolo[1,5-a]pyrimidin-3-yl)-5-fluoro-2-(((3S,4S)-4-fluoropiperidin-3-yl)amino)nicotinonitrile]"

# Same assay, conditions: Table 18; no ATP
row,Compound,Kd [nM]
1,"COc1cn2ncc(-c3nc(N[C@@H]4CCCNC4)ncc3F)c2nc1C1CC1 [Compound 14a, (R)-4-(5-cyclopropyl-6-methoxypyrazolo[1,5-a]pyrimidin-3-yl)-5-fluoro-N-(piperidin-3-yl)pyrimidin-2-amine]",0.2
2,"COc1cn2ncc(-c3cncc(N[C@H]4CNCC[C@@H]4F)n3)c2nc1C1CC1 [Compound 12a, 6-(5-cyclopropyl-6-methoxypyrazolo[1,5-a]pyrimidin-3-yl)-N-((3S,4S)-4-fluoropiperidin-3-yl)pyrazin-2-amine]",0.54
3,"COc1cn2ncc(-c3nc(N[C@H]4CNCC[C@@H]4F)ncc3F)c2nc1C(C)(C)O [Compound 6a, 2-(3-(5-fluoro-2-(((3S,4S)-4-fluoropiperidin-3-yl)amino)pyrimidin-4-yl)-6-methoxypyrazolo[1,5-a]pyrimidin-5-yl)propan-2-ol]",0.25

# The next lines start with the values.
row,Kd [nM],Compound
1,0.37,"COc1cn2ncc(-c3nc(N[C@H]4CNCC[C@@H]4F)ncc3F)c2nc1C1CC1 [Compound 15a, 4-(5-cyclopropyl-6-methoxypyrazolo[1,5-a]pyrimidin-3-yl)-5-fluoro-N-((3S,4S)-4-fluoropiperidin-3-yl)pyrimidin-2-amine]"
2,1.2,"COc1cn2ncc(-c3ccnc(N[C@H]4CNCC[C@@H]4F)n3)c2nc1C1CC1 [Compound 7a, 4-(5-cyclopropyl-6-methoxypyrazolo[1,5-a]pyrimidin-3-yl)-N-((3S,4S)-4-fluoropiperidin-3-yl)pyrimidin-2-amine]"
